Results as given in patent publication US12472140B2, “Composition and method for transdermal delivery of cannabidiol (CBD) and tetrahydrocannabinol (THC)” (Ovation Science Inc., priority 2020, dated 2025).

Assays:
[1] = Six-hour Franz Cell study of skin penetration by CBD and THC; conditions: for penetration of CBD relative to THC: at 6 hours
[2] = Release of CBD and THC from the composition, effect of adding surfactant; type: physicochemical; conditions: for ratio of release of CBD and THC: numerically THC/CBD
Source text: Addition of surfactant can assist in release of CBD and THC from the composition.

Solubility = conditions: polyvinylpyrrolidone polymers with C16, C20, C30 side chains
[3] = oral doses of 15-20 mg; cited from earlier work
[4] = cited from earlier work
[5] = Example 1, penetrant increased from 1% to 3%
[6] = Example 3, terpene penetrant increased from 1% to 3%

CCCCCc1cc(O)c2c(c1)OC(C)(C)[C@H]1CCC(C)=C[C@H]21 [THC, Δ^9-tetrahydrocannabinol]
penetration [1, 5]: 3.2% | penetration [1, 6]: 3.2% | release from the composition ([2]; after addition of surfactant): 21.7% | ratio of release of CBD and THC ([2]; after addition of surfactant): 0.72 | release from the composition ([2]; before addition of surfactant): 3% | ratio of release of CBD and THC ([2]; before addition of surfactant): 0.7 | solubility in hydrophobic polymer delivery system / polymer complexes (Solubility): readily soluble | effect on cancer pain [3]: decreased cancer pain comparable to 120 mg of codeine | solubility in aqueous buffers [4]: sparingly soluble | solubility in organic solvents [4]: readily soluble

C=C(C)[C@@H]1CCC(C)=C[C@H]1c1c(O)cc(CCCCC)cc1O [CBD, cannabidiol]
penetration of CBD relative to THC ([1]; Example 1, 1:1 CBD:THC formulation): ~4 times | penetration [1, 5]: 5.8% | penetration of CBD relative to THC ([1]; Example 3, 1:1 CBD:THC formulation): ~2 times | actual (penetration) weight ratio of CBD:THC ([1]; Example 3, formulated weight ratio 1:1 CBD:THC): 1.98 | penetration [1, 6]: 5.8% | release from the composition ([2]; after addition of surfactant): 30.2% | release from the composition ([2]; before addition of surfactant): 4.3% | solubility in hydrophobic polymer delivery system / polymer complexes (Solubility): readily soluble | solubility in aqueous buffers [4]: sparingly soluble | solubility in organic solvents [4]: readily soluble
